Source: patent publication US20200087625A1, “METHODS FOR ISOLATING, EXPANDING AND ADMINISTERING CANCER SPECIFIC CD8+ T CELLS” (priority 2017, published 2020)

Test system: dendritic cells
Test: Dendritic cell activation and CD8+ T cell recruitment in mLN and lungs
Format: in vivo, BALB/c mice
Conditions: day 7
Protocol: FIGS. 25A-25F. Innate immune cells, NK cells and dendritic cells are activated following 1V270 therapy and contribute to anti-metastatic effects (A-C) Systemic administration of 1V270 activates dendritic cells and increases CD8^+ cell recruitment in the lung draini lymph node. (A) BALB/c mice (n=S/group) were treated with 1V270 on day −1 and then tumor cells were i.v. administered on day 0. Seven days later, mediastinal lymph node (mLN) cells were stained for dendritic cells (DC; CD45^+CD11c^+MHC classll^+). (B) DCs were further stained for CD80 and CD86. (C) The mLN cells were also stained for central memory CD8^+ T cells (CD3+CD8^+CD44^+CD62L^+), effector memory CD8^+ T cells (CD3+CD8^+CD44^+CD62L^+), and naive CD8^+ T cells (CD3+CD8^+CD44^−CD62L^−). Each dot indicates an individual mouse and horizontal and vertical bars indicate means±SEM. Data are representative of 3 independent experiments showing similar results. *P<0.05, **P<0.01 by Mann-Whitney U test comparing the individual groups. (D-F) In vivo imaging analyses using GLF•expressing 4T1 cells (4T1-GLF). (D) BALB/c mice (n=14-15/group) were i.p, administered with 200 μg 1V270 or vehicle. Next day, 2×10^4 4T1-GLF cells were i.v. injected through the tail vein. Tumor signals were quantified by IVIS. Data (mean±SEM) were pooled from 3 independent experiments showing similar results. *P<0.05, **P<0.01 by two-way ANOVA using a Bonferroni post hoc test comparing treatment groups against the vehicle group. […] (E,F) NK cells recruited by 1V270 therapy prevent colonization of 4T1 cells. (E) BALB/c mice (n=G−7/group) were treated with 1V270 (200 μg/injection) on day −1 and then tumor cells were i.v. administered on day 0. On the next day, lung cells were stained for NK markers (CD45^+[…] NKp46^+CD49^+) and analyzed by flow cytometry. […] Tumor signals were analyzed as described above. […]
Since the 1V270 therapy induced a tumor-specific CD8^+ T cell response in the 4T1 model, we evaluated whether the therapy activated APCs in the lungs, and/or in the draining lymph nodes. […]

## CCCCCCCCC=CCCCCCCCC(=O)OCC(COP(=O)(O)OCCNC(=O)c1ccc(Cn2c(=O)[nH]c3c(N)nc(OCCOC)nc32)cc1)OC(=O)CCCCCCCC=CCCCCCCCC (stereo not drawn) [1V270]
1V270 i.p. day -1
  frequencies of cells expressing co-stimulatory molecules (CD80 or CD86): significantly increased
mLN
  recruitment of CD8+ T cells (central memory, effector memory, naive): recruitment of CD8^+ T cells with memory and nalve phenotypes
mLNs and lungs, 1V270 i.p. day -1
  population of CD11c+ dendritic cells: increased in both mLNs and the lungs
